According to patent US11642319B2, “Targeted nanogels for urinary bladder therapies” (THE REGENTS OF THE UNIVERSITY OF COLORADO, priority 2017, dated 2023):
Ends that are not written are not given here.

Columns and labels:
collagen type I = collagen type I (Homo sapiens, UniProt P02452+P08123); test: Peptide binding to collagen-coated wells; details: FIG. 5C
Description: (§1) The peptides CGKRK (SEQ ID NO:1) and KAREC (SEQ ID NO:2) were diluted two-fold in PBS at different concentrations and added to collagen- and heparin-coated wells preblocked with 5% bovine serum albumin. The plates were incubated at room temperature for 1 hour, washed 4 times with 200 μL PBS, and scanned at […] of 485 and 515 nm using a SpectraMax M5 fluorescence plate reader. The PBS background was subtracted from the data points, and the data were plotted with Prism.

[1] = Peptide binding to heparin-coated wells; details: FIG. 5B
Description: as §1

bladder urothelium = test: Intravesical peptide binding to the mouse bladder with or without injury (in situ imaging, histology); assay type: in vivo, mice; details: for Binding in the bladder, in situ images: 15 minutes incubation; for Histological analysis of binding, entire bladder: 2× magnification
Description: Eight-to twelve-week-old female mice were anesthetized with isoflurane using a vaporizer machine at a flow rate of 1-3 L/min. The mice were placed on their backs and their urethra openings were pulled forward while squeezing the bladder to express urine. A lubricated 24 G Angiocath catheter with no needle was inserted via the urethra into the bladder cavity to wash the bladder once with […] PBS. To imitate a bladder injury subsequent to bladder cancer surgery, in which the urothelium is damaged after the removal of cancer tissues, the catheter tip was inserted completely and five circular motions were made in the apical part of the bladder. A 1 mL syringe with 100 μL of a CGKRK peptide (SEQ ID NO:1) solution (0.3 mg/mL in 80% PBS/20% DMSO) was attached to the catheter, and approximately 50 μL of the solution was injected into the bladder until the bladder was completely distended, as determined by abdominal palpitation. The catheter with attached syringe was left in the bladder for 15 minutes. After incubation, the peptide was removed via negative pressure, and the bladder was washed 5 times with PBS, with complete filling of the bladder each time. A Dino-Lite AM4113T-GRFBY camera equipped with 480- and 570-nm excitation filters and 510- and 610-nm long pass emission filters was used to take images of the bladder in situ. The abdominal cavity was opened by incision, and the bladder was imaged at 20 to 40 times magnification. The images were acquired at 1280×1024 resolution.
Freshly removed bladders were washed in PBS and snap frozen in liquid nitrogen. The tissue was embedded in optical cutting temperature (OCT) media and cryosectioned in consecutive 7-μm steps so that alternating sections were mounted on slides for fluorescence imaging and hematoxylin-eosin (H&E) staining, respectively. The tissues on each slide were fixed in a 10% buffered formalin solution, mounted with Vectashield™ antifade mounting medium with DAPI (for fluorescence imaging) or Permount™ medium (for H&E staining), and covered with a coverslip. The bladders imaged with a Nikon E600 upright fluorescence microscope with a SPOT RT color camera. The images in each fluorescence channel were acquired under saturation as 12-bit gray TIFF files, and H&E images were acquired as RGB images. Each low-magnification image covering the entire bladder area was analyzed with ImageJ software. The background was subtracted, and the integrated gray density per image was calculated. The intensities were plotted as individual values using Prism software.
Referring now to FIGS. 6A and 6B, the effect of mechanical injury on accumulation of peptides in the bladder is illustrated. Mice were treated by washing the bladder and inducing injury to the mucosal surface of the bladder; the peptide was then injected into the bladder and incubated 15 minutes; the bladder was then washed 5 times. […] The arrows in FIGS. 6A and 6B indicate the apical region of the bladder.
An investigation of the mechanisms of injury-induced accumulation of CGKRK (SEQ ID NO:1) was conducted. CGKRK (SEQ ID NO:1) was mixed with EDTA-treated blood and administered intravesically. […] Mice were pretreated with the anti-inflammatory agent dexamethasone prior to injury.

[2] = system: MB49 bladder carcinoma cell line; test: Peptide uptake by MB49 bladder carcinoma cells; assay type: cell-based, murine
Description: An MB49 bladder carcinoma cell line was maintained in full Dulbecco's modified Eagle's medium (DMEM) with antibiotics and L-glutamine. Cells were seeded on 24 well plates for at least 24 hours to allow the cells to grow to confluence; each sample was done in triplicate. Samples were then incubated with one of free CGKRK (SEQ ID NO:1) and KAREC (SEQ ID NO:2), micelles of these two peptides, fluorescence TAT peptide (positive control), and PBS (negative control). After the incubation, all wells were washed with PBS three times to remove any free fluorescence molecules. Cells were detached from the wells with trypsin at 37° C. for 5 minutes. 0.3% Triton X-100 in PBS was added to the cells, and after 30 minutes of incubation, the solutions were centrifugated in an Eppendorf microcentrifuge at 15,000 rpm. The fluorescence intensity of the supernatant was measured using a fluorescence plate reader. For confocal imaging, cells were grown on glass chamber slides. Following the incubation experiment, cells were imaged with a Nikon MR Confocal STORM super-resolution microscope.

Sequence of collagen type I (P02452 162-1218 limits assumed): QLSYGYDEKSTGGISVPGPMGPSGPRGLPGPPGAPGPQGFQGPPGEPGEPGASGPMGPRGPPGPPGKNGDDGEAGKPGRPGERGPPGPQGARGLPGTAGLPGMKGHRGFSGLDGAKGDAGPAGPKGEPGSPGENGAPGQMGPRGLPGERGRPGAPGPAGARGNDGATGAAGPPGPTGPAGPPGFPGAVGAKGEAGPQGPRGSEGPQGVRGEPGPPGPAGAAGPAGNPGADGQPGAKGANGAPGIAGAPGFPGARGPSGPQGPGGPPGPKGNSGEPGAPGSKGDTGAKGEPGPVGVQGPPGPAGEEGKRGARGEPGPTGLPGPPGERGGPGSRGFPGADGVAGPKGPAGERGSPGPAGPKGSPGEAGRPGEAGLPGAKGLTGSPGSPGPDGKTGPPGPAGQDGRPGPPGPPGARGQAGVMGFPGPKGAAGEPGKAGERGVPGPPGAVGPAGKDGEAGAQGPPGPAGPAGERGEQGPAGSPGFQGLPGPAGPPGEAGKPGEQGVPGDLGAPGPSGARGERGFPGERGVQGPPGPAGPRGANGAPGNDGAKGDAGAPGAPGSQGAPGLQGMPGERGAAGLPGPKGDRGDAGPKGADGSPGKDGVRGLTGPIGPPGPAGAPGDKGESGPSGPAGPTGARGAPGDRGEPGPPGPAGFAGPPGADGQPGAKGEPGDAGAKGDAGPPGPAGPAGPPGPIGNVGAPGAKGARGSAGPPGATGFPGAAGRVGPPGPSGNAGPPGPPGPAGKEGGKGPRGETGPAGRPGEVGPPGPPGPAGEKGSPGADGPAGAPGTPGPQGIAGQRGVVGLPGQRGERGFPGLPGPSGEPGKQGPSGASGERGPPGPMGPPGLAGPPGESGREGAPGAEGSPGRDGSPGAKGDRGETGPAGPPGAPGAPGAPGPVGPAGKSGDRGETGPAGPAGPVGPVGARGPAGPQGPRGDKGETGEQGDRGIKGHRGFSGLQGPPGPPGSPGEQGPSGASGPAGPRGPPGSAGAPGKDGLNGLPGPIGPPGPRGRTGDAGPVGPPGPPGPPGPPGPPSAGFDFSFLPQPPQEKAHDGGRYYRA
Sequence of collagen type I (P08123 80-1119 limits assumed): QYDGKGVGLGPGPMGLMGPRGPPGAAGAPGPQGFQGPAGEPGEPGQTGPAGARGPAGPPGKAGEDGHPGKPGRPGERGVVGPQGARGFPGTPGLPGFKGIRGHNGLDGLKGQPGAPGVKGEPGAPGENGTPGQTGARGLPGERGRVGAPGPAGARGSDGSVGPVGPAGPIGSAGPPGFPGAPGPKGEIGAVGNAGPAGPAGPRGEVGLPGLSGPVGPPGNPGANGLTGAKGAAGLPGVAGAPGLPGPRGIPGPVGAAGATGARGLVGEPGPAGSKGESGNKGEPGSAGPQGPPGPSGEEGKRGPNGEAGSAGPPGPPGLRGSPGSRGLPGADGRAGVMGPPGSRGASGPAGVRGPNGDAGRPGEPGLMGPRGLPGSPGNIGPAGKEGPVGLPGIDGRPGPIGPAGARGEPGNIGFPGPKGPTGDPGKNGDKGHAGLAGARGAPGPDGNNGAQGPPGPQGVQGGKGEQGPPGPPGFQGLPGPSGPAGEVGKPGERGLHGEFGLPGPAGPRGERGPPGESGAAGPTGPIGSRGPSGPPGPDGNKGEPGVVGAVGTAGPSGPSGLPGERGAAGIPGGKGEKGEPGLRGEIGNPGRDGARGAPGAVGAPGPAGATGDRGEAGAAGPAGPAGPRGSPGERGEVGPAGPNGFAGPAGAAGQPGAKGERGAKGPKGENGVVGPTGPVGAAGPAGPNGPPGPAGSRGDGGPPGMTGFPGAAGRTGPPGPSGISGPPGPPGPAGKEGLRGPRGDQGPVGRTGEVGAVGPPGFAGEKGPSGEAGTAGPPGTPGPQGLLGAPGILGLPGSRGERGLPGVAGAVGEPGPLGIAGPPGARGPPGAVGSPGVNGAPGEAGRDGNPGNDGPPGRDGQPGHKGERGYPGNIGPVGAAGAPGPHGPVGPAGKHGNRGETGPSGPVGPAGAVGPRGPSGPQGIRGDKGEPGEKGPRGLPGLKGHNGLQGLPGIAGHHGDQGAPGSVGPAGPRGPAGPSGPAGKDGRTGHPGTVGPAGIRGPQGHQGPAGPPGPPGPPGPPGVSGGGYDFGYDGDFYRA

| Substance | Kinetics of binding to collagen (curve fit) (collagen type I) | Kinetics of binding to heparin (curve fit) [1] | Binding in the bladder, in situ images (bladder urothelium; after mechanical injury) | Histological analysis of binding, entire bladder (bladder urothelium; injured bladder, FIG. 7) | Cellular uptake, accumulation in the cytoplasm (confocal images) [2] | Peptide uptake quantified by fluorescence spectroscopy ([2]; FIG. 5A, versus KAREC) | Binding to collagen type I (collagen type I; versus KAREC) | Binding to heparin ([1]; versus KAREC) | Accumulation after chemical disruption of the urothelium barrier with ethanol (bladder urothelium; 2× and 20× magnification) | Binding in the bladder, in situ images (bladder urothelium; absence of focal injury) | Histological analysis of binding, tissue layers (bladder urothelium; injured bladder, 20× magnification, FIG. 7) | Injury-induced binding after dexamethasone pretreatment (bladder urothelium; mice pretreated with dexamethasone prior to injury) | Binding when mixed with EDTA-treated blood (bladder urothelium; no injury, intravesical) |
| --- | --- | --- | --- | --- | --- | --- | --- | --- | --- | --- | --- | --- | --- |
| KAREC [comparison peptide tested beside CGKRK, reference compound] | linear kinetics for other binding | linear kinetics for other binding | limited binding at the injury site | less efficient and less widespread accumulation |  |  |  |  |  |  |  |  |  |
| CGKRK (also: fluorescent label) [cell-penetrating pentapeptide, fluorescently labelled in the tests] | saturation kinetics | linear kinetics for other binding | efficient binding after injury | widespread binding | significant accumulation | significantly more accumulation | more efficient binding to both heparin and collagen type I | more efficient binding to both heparin and collagen type I | widespread accumulation | no binding | accumulation of the peptide in the urothelium (U) and some penetration into the muscle layer (ML) | did not block injury-induced binding | Blood did not induce binding in the absence of injury |
